Assay results: article PMC5321639, “Design and pharmacodynamics of recombinant NZ2114 histidine mutants with improved activity against methicillin-resistant Staphylococcus aureus” (AMB Express, 2017)
In brackets after ≈: the same amount, converted by molar mass. Several values for one entry are separate records, joined by “and”; a condition that tells them apart may be missing. Equal values may be shown once. Where a SMILES comes first, the peptide text is derived from it. Bridges are numbered along the chain shown (N, C = ends).

Experiments:
S. suis CVCC3309 = test: MIC assay; format: cell-based, Streptococcus suis; conditions: MHB, 1 × 10^5 CFU/ml, 37 °C, 18–24 h, triplicate
Method: (§1) The peptide solutions were diluted twofold with the range of final concentrations were 0.015–32 µg/ml (0.003–7.273 µM) for purified H1, H2, H3, H6, and H8. The test strains were grown in MHB medium at 37 °C to an OD600 of 0.4 and diluted to 1 × 10^5 CFU/ml. The 10 µl peptide and 90 µl cell suspension were added into each well. All assays were performed in triplicate. The antimicrobial activity of NZ2114 and vancomycin were tested as positive controls. The plates were incubated at 37 °C for 18–24 h. MIC was defined as the lowest peptide concentration of ones at which there was no visible growth (Tian et al. [2009]).

S. suis CVCC3928 = test: MIC assay; format: cell-based, Streptococcus suis; conditions: MHB, 1 × 10^5 CFU/ml, 37 °C, 18–24 h, triplicate
Method: as §1

S. suis CVCC606 = test: MIC assay; format: cell-based, Streptococcus suis; conditions: MHB, 1 × 10^5 CFU/ml, 37 °C, 18–24 h, triplicate
Method: as §1

S. choleraesuis CVCC503 = test: MIC assay; format: cell-based; conditions: MHB, 1 × 10^5 CFU/ml, 37 °C, 18–24 h, triplicate
Method: as §1

S. pullorum CVCC1789 = test: MIC assay; format: cell-based; conditions: MHB, 1 × 10^5 CFU/ml, 37 °C, 18–24 h, triplicate
Method: as §1

S. typhimurium ATCC14028 = test: MIC assay; format: cell-based; conditions: MHB, 1 × 10^5 CFU/ml, 37 °C, 18–24 h, triplicate
Method: as §1

E. coli CICC21530 = test: MIC assay; format: cell-based, Escherichia coli; conditions: MHB, 1 × 10^5 CFU/ml, 37 °C, 18–24 h, triplicate
Method: as §1

E. coli CVCC195 = test: MIC assay; format: cell-based, Escherichia coli; conditions: MHB, 1 × 10^5 CFU/ml, 37 °C, 18–24 h, triplicate
Method: as §1

S. aureus ATCC43300 [1] = test: Postantibiotic effect (PAE); format: cell-based, Staphylococcus aureus; conditions: 2 h exposure at 37 °C, 1 × 10^8 CFU/ml, drug removed by 1:10^3 dilution, mean ± SD, n = 3
Method: After 2 h, the drug was removed by diluting 1:10^3 into the MHB and incubated at 37 °C, 250 rpm. The sample was taken to plate counting every 1 h until the bacterial cultures become turbid. The PAE was calculated by the following formula: PAE = T − C, where T is the time needed for the count of CFU in the test culture to increase 1 log10 (10-fold) above the 0 h and C is the time needed for the count of CFU in the untreated control culture to increase 1 log10 above the 0 h (Giguère et al. [2012]).

S. aureus ATCC43300 [2] = test: Effect of pH on activity (MIC); format: cell-based, Staphylococcus aureus; conditions: then MIC assay
Method: as §1
The effect of pH, temperature, NaCl concentration and proteinase on the activity of peptides was evaluated. Peptides were diluted twofold, then adjusted to a pH range from 2.0 to 10.0 and incubated at 37 °C for 4 h. The thermal stability of purified peptides was determined after 1-h incubation of peptides at 4, 20, 40, 60, 80 and 100 °C in deionized water, respectively. Aliquots of peptides were incubated in various proteinases solutions [pepsin (pH 2.0), trypsin (pH 8.0), proteinase K (pH 7.0)] at a ratio of 1:10, w/w (proteinase: peptide) at 37 °C for 3 h. For the ion stability, peptides were incubated in 50, 100, 200, 300, 400, 500 mM sodium chloride solutions, respectively. Other methods and conditions were prepared as the MIC assay described above (Li et al. [2015]; Qu et al. [2016]).

Question: With `CC[C@H](C)[C@@H]1NC(=O)[C@H](CO)NC(=O)[C@H](CCCCN)NC(=O)[C@@H]2CSSC[C@@H](C(=O)N[C@@H](Cc3ccc(O)cc3)C(=O)O)NC(=O)[C@H](CCCCN)NC(=O)[C@@H]3CSSC[C@H](NC(=O)[C@H](CCCNC(=N)N)NC(=O)[C@H](CC(C)C)NC(=O)[C@H](CC(=O)O)NC(=O)[C@H](CC(=O)O)NC(=O)[C@H](CCC(=O)O)NC(=O)[C@H](CC(N)=O)NC(=O)[C@H](Cc4c[nH]c5ccccc45)NC(=O)[C@@H]4CCCN4C(=O)CNC(=O)[C@H](CC(N)=O)NC(=O)[C@@H](NC(=O)CNC(=O)[C@H](Cc4ccccc4)NC(=O)CN)CSSC[C@H](NC(=O)[C@H](Cc4ccc(O)cc4)NC(=O)CNC(=O)CNC(=O)[C@H](CCCCN)NC(=O)[C@H](Cc4ccc(O)cc4)NC(=O)CNC(=O)[C@H](CCCCN)NC1=O)C(=O)N[C@@H](C)C(=O)N[C@@H](CCCCN)C(=O)NCC(=O)NCC(=O)N[C@@H](Cc1ccccc1)C(=O)N[C@@H](C(C)C)C(=O)N3)C(=O)N[C@@H](CCCNC(=N)N)C(=O)N[C@@H](CC(N)=O)C(=O)N[C@@H](Cc1c[nH]cn1)C(=O)N2` [H2] (H-GFGCNGPWNEDDLRCRNHCKSIKGYKGGYCAKGGFVCKCY-OH; disulfide 4-30, 15-37, 19-39 (inferred); N-terminus and C-terminus assumed) as the compound, how does the MIC (S. suis CVCC3309) read?
Answer: Its MIC is 0.028 µM (≈ 0.124 µg/mL).

Question: What about the MIC (S. suis CVCC3928) of the same compound?
Answer: Its MIC is 0.014 µM (≈ 0.062 µg/mL).

Question: And the MIC (S. suis CVCC606)?
Answer: Its MIC is 0.028 µM (≈ 0.124 µg/mL).

Question: And the MIC (S. choleraesuis CVCC503)?
Answer: Its MIC is >7.273 µM.

Question: And the MIC (S. pullorum CVCC1789)?
Answer: The MIC was >7.273 µM.

Question: And the MIC (S. typhimurium ATCC14028)?
Answer: The MIC was >7.273 µM.

Question: What about the MIC (E. coli CICC21530) of the same compound?
Answer: The MIC was >7.273 µM.

Question: And the MIC (E. coli CVCC195)?
Answer: Its MIC is >7.273 µM.

Question: What about the PAE (S. aureus ATCC43300 [1]; 1× MIC) of the same compound?
Answer: Its PAE is 0.63 h and 0.63 ± 0.13 h.

Question: And the PAE (S. aureus ATCC43300 [1]; 2× MIC)?
Answer: The PAE was 1.75 ± 0.04 h.

Question: What about the “MIC after incubation at pH2” value (S. aureus ATCC43300 [2]; pH 2, 37 °C for 4 h) of the same compound?
Answer: Its value is 0.114 μM.

Question: And the “MIC after incubation at pH4” value (S. aureus ATCC43300 [2]; pH 4, 37 °C for 4 h)?
Answer: Its value is 0.114 μM.

Question: And the “MIC after incubation at pH6” value (S. aureus ATCC43300 [2]; pH 6, 37 °C for 4 h)?
Answer: The value was 0.114 μM.

Question: What about the “MIC after incubation at pH8” value (S. aureus ATCC43300 [2]; pH 8, 37 °C for 4 h) of the same compound?
Answer: The value was 0.114 μM.

Question: And the “MIC after incubation at pH10” value (S. aureus ATCC43300 [2]; pH 10, 37 °C for 4 h)?
Answer: The value was 0.114 μM.
